These results are taken from patent US12528826B2, “[1,4]oxazepino[2,3-c]quinolinone derivatives as BCL6 inhibitors” (Cancer Research Technology Limited, priority 2019, dated 2026).

The test concerns the target T1, Trx-6×His-BCL6 (human BCL6 BTB domain covering amino-acid sequence 5-129) (Homo sapiens, UniProt P41182).
T1 construct: made in house
Briefly: HTRF assay (BCL6 / BCOR peptide). The following applies: 1 nM Trx-6×His-BCL6, 300 nM BCOR-AF633 peptide, 2 hours incubation at room temperature; for IC50: read-out: HTRF avg pIC50 (converted). It is filed as binding. As to the method:
After 2 hours incubation at room temperature the plate was read on a Pherastar FSX (BMG Labtech) plate reader equipped with 337 nm laser excitation filter, a first emission filter at 620 nm and a second emission filter at 665 nm. The % inhibition at each concentration was calculated by normalising FRET ratio to the appropriate high (DMSO with all reagents) and low (DMSO without BCL6) controls.

With `C[C@H]1CCCN(c2ncc(Cl)c(Nc3ccc4c(c3)c3c(c(=O)n4C)OCC(F)(F)[C@H](C4CC4)N3)n2)C1` [Example 1k, (S)-10-((5-chloro-2-((S)-3-methylpiperidin-1-yl)pyrimidin-4-yl)amino)-2-cyclopropyl-3,3-difluoro-7-methyl-1,2,3,4-tetrahydro-[1,4]oxazepino[2,3-c]quinolin-6(7H)-one], the IC50 is 38 nM.

Take `C[C@@H]1CCCN(c2ncc(Cl)c(Nc3ccc4c(c3)c3c(c(=O)n4C)OCC(F)(F)[C@H](C4CC4)N3)n2)C1` [Example 1l, (S)-10-((5-chloro-2-((R)-3-methylpiperidin-1-yl)pyrimidin-4-yl)amino)-2-cyclopropyl-3,3-difluoro-7-methyl-1,2,3,4-tetrahydro-[1,4]oxazepino[2,3-c]quinolin-6(7H)-one]: the IC50 is 25.7 nM.

Consider `Cn1c(=O)c2c(c3cc(Nc4nc(N5CC(C)(F)C5)ncc4Cl)ccc31)N[C@@H](C1CC1)C(F)(F)CO2` [Example 1m, (S)-10-((5-chloro-2-(3-fluoro-3-methylazetidin-1-yl)pyrimidin-4-yl)amino)-2-cyclopropyl-3,3-difluoro-7-methyl-1,2,3,4-tetrahydro-[1,4]oxazepino[2,3-c]quinolin-6(7H)-one], for which the IC50 was 9.33 nM.

Turning to `Cn1c(=O)c2c(c3cc(Nc4nc(N5CC(C)(O)C5)ncc4Cl)ccc31)N[C@@H](C1CC1)C(F)(F)CO2` [Example 1n, (S)-10-((5-chloro-2-(3-hydroxy-3-methylazetidin-1-yl)pyrimidin-4-yl)amino)-2-cyclopropyl-3,3-difluoro-7-methyl-1,2,3,4-tetrahydro-[1,4]oxazepino[2,3-c]quinolin-6(7H)-one], the IC50 was 13.8 nM.

As for `C[C@H]1C[C@@H](O)CN(c2ncc(F)c(Nc3ccc4c(c3)c3c(c(=O)n4C)OCC(F)(F)[C@H](C4CC4)N3)n2)C1` [Example 2a, (S)-2-cyclopropyl-3,3-difluoro-10-((5-fluoro-2-((3R,5S)-3-hydroxy-5-methylpiperidin-1-yl)pyrimidin-4-yl)amino)-7-methyl-1,2,3,4-tetrahydro-[1,4]oxazepino[2,3-c]quinolin-6(7H)-one], the IC50 is 2.4 nM.

For `Cn1c(=O)c2c(c3cc(Nc4nc(N5CCC(F)(F)CC5)ncc4F)ccc31)N[C@@H](C1CC1)C(F)(F)CO2` [Example 2b, (S)-2-cyclopropyl-10-((2-(4,4-difluoropiperidin-1-yl)-5-fluoropyrimidin-4-yl)amino)-3,3-difluoro-7-methyl-1,2,3,4-tetrahydro-[1,4]oxazepino[2,3-c]quinolin-6(7H)-one], the IC50 was 22.4 nM.

`[2H]C([2H])([2H])n1c(=O)c2c(c3cc(Nc4nc(N5C6CCC5COC6)ncc4Cl)cnc31)N[C@@H](C1CC1)C(F)(F)CO2` [Example 3a, (S)-10-((2-(3-oxa-8-azabicyclo[3.2.1]octan-8-yl)-5-chloropyrimidin-4-yl)amino)-2-cyclopropyl-3,3-difluoro-7-(methyl-d3)-1,2,3,4-tetrahydro-[1,4]oxazepino[2,3-c][1,8]naphthyridin-6(7H)-one]: the IC50 was 1.62 nM.

For the compound `Cc1noc(-c2cc(Nc3ccc4c(c3)c3c(c(=O)n4C)OCC(F)(F)[C@H](C4CC4)N3)c(Cl)cn2)n1` [Example 4a, (S)-10-((5-chloro-2-(3-methyl-1,2,4-oxadiazol-5-yl)pyridin-4-yl)amino)-2-cyclopropyl-3,3-difluoro-7-methyl-1,2,3,4-tetrahydro-[1,4]oxazepino[2,3-c]quinolin-6(7H)-one], the IC50 was 3.47 nM.

On to `Cn1c(=O)c2c(c3cc(Nc4ccnc(Cl)c4Cl)ccc31)N[C@@H](C1CC1)C(F)(F)CO2` [Example 4c, (S)-2-cyclopropyl-10-((2,3-dichloropyridin-4-yl)amino)-3,3-difluoro-7-methyl-1,2,3,4-tetrahydro-[1,4]oxazepino[2,3-c]quinolin-6(7H)-one], for which the “HTRF avg pIC50” value was found to be 7.86.

Take `Cn1c(=O)c2c(c3cc(Nc4ccnc(Cl)c4F)ccc31)N[C@@H](C1CC1)C(F)(F)CO2` [Example 4d, (S)-10-((2-chloro-3-fluoropyridin-4-yl)amino)-2-cyclopropyl-3,3-difluoro-7-methyl-1,2,3,4-tetrahydro-[1,4]oxazepino[2,3-c]quinolin-6(7H)-one]: the “HTRF avg pIC50” value is recorded as 7.78.

Take `Cc1nccc(Nc2ccc3c(c2)c2c(c(=O)n3C)OCC(F)(F)[C@H](C3CC3)N2)c1Cl` [Example 4e, (S)-10-((3-chloro-2-methylpyridin-4-yl)amino)-2-cyclopropyl-3,3-difluoro-7-methyl-1,2,3,4-tetrahydro-[1,4]oxazepino[2,3-c]quinolin-6(7H)-one]: the “HTRF avg pIC50” value came out at 7.73.

On to `Cn1c(=O)c2c(c3cc(Nc4nc(N5[C@@H]6COC[C@H]5C[C@@H](O)C6)ncc4F)ccc31)N[C@@H](C1CC1)C(F)(F)CO2` [Example 5a, (S)-2-cyclopropyl-3,3-difluoro-10-((5-fluoro-2-((1R,5S,7R)-7-hydroxy-3-oxa-9-azabicyclo[3.3.1]nonan-9-yl)pyrimidin-4-yl)amino)-7-methyl-1,2,3,4-tetrahydro-[1,4]oxazepino[2,3-c]quinolin-6(7H)-one], for which the IC50 was 1.51 nM.

As to `Cn1c(=O)c2c(c3cc(Nc4ncncc4Cl)ccc31)N[C@@H](C1CC1)C(F)(F)CO2` [Example 6a, (S)-10-((5-chloropyrimidin-4-yl)amino)-2-cyclopropyl-3,3-difluoro-7-methyl-1,2,3,4-tetrahydro-[1,4]oxazepino[2,3-c]quinolin-6(7H)-one], the IC50 was 14.1 nM.

Take `CN(C)c1ncc(Cl)c(Nc2ccc3c(c2)c2c(c(=O)n3C)OCC(F)(F)[C@H](C3CC3)N2)n1` [Example 8a, (S)-10-((5-chloro-2-(dimethylamino)pyrimidin-4-yl)amino)-2-cyclopropyl-3,3-difluoro-7-methyl-1,2,3,4-tetrahydro-[1,4]oxazepino[2,3-c]quinolin-6(7H)-one]: the IC50 is 10.7 nM.

On to `Cn1c(=O)c2c(c3cc(Nc4nc(N5C[C@@H](O)C[C@@H](F)C5)ncc4Cl)ccc31)N[C@@H](C1CC1)C(F)(F)CO2` [Example 9a, (S)-10-((5-chloro-2-((3S,5R)-3-fluoro-5-hydroxypiperidin-1-yl)pyrimidin-4-yl)amino)-2-cyclopropyl-3,3-difluoro-7-methyl-1,2,3,4-tetrahydro-[1,4]oxazepino[2,3-c]quinolin-6(7H)-one: (S)-10-((5-chloro-2-((3R,5S)-3-fluoro-5-hydroxypiperidin-1-yl)pyrimidin-4-yl)amino)-2-cyclopropyl-3,3-difluoro-7-methyl-1,2,3,4-tetrahydro-[1,4]oxazepino[2,3-c]quinolin-6(7H)-one (1:1)], for which the “HTRF avg pIC50” value worked out at 8.60.

As for `Cn1c(=O)c2c(c3cc(Nc4nc(N5C[C@H](O)C[C@H](F)C5)ncc4Cl)ccc31)N[C@@H](C1CC1)C(F)(F)CO2` [Example 9a-1, (S)-10-((5-chloro-2-((3S,5R)-3-fluoro-5-hydroxypiperidin-1-yl)pyrimidin-4-yl)amino)-2-cyclopropyl-3,3-difluoro-7-methyl-1,2,3,4-tetrahydro-[1,4]oxazepino[2,3-c]quinolin-6(7H)-one], the IC50 was 1.82 nM.

For `Cn1c(=O)c2c(c3cc(Nc4nc(N5C[C@@H](O)C[C@@H](F)C5)ncc4Cl)ccc31)N[C@@H](C1CC1)C(F)(F)CO2` [Example 9a-2, (S)-10-((5-chloro-2-((3R,5S)-3-fluoro-5-hydroxypiperidin-1-yl)pyrimidin-4-yl)amino)-2-cyclopropyl-3,3-difluoro-7-methyl-1,2,3,4-tetrahydro-[1,4]oxazepino[2,3-c]quinolin-6(7H)-one], the IC50 is 2.95 nM.

As to `CN(C)C[C@@H]1CCCN(c2ncc(Cl)c(Nc3ccc4c(c3)c3c(c(=O)n4C)OCC(F)(F)[C@H](C4CC4)N3)n2)C1` [Example 9b, (S)-10-((5-chloro-2-((S)-3-((dimethylamino)methyl)piperidin-1-yl)pyrimidin-4-yl)amino)-2-cyclopropyl-3,3-difluoro-7-methyl-1,2,3,4-tetrahydro-[1,4]oxazepino[2,3-c]quinolin-6(7H)-one], the IC50 was 3.09 nM.

As for `CN(C)[C@H]1CCCN(c2ncc(Cl)c(Nc3ccc4c(c3)c3c(c(=O)n4C)OCC(F)(F)[C@H](C4CC4)N3)n2)C1` [Example 9h, (S)-10-((5-chloro-2-((S)-3-(dimethylamino)piperidin-1-yl)pyrimidin-4-yl)amino)-2-cyclopropyl-3,3-difluoro-7-methyl-1,2,3,4-tetrahydro-[1,4]oxazepino[2,3-c]quinolin-6(7H)-one], the IC50 is 3.39 nM.

Regarding `CN(C)[C@@H]1CCCN(c2ncc(Cl)c(Nc3ccc4c(c3)c3c(c(=O)n4C)OCC(F)(F)[C@H](C4CC4)N3)n2)C1` [Example 9i, (S)-10-((5-chloro-2-((R)-3-(dimethylamino)piperidin-1-yl)pyrimidin-4-yl)amino)-2-cyclopropyl-3,3-difluoro-7-methyl-1,2,3,4-tetrahydro-[1,4]oxazepino[2,3-c]quinolin-6(7H)-one], the IC50 was 2.69 nM.

On to `CC(=O)N(C)[C@@H]1CN(c2ncc(Cl)c(Nc3ccc4c(c3)c3c(c(=O)n4C)OCC(F)(F)[C@H](C4CC4)N3)n2)CCC1(F)F` [Example 9m, N-((R)-1-(5-chloro-4-(((S)-2-cyclopropyl-3,3-difluoro-7-methyl-6-oxo-1,2,3,4,6,7-hexahydro-[1,4]oxazepino[2,3-c]quinolin-10-yl)amino)pyrimidin-2-yl)-4,4-difluoropiperidin-3-yl)-N-methylacetamide], for which the IC50 was 2.51 nM.

With `CC(=O)N(C)[C@H]1CN(c2ncc(Cl)c(Nc3ccc4c(c3)c3c(c(=O)n4C)OCC(F)(F)[C@H](C4CC4)N3)n2)CCC1(F)F` [Example 9n, N-((S)-1-(5-chloro-4-(((S)-2-cyclopropyl-3,3-difluoro-7-methyl-6-oxo-1,2,3,4,6,7-hexahydro-[1,4]oxazepino[2,3-c]quinolin-10-yl)amino)pyrimidin-2-yl)-4,4-difluoropiperidin-3-yl)-N-methylacetamide], the IC50 is 4.9 nM.
